Source: PubChem BioAssay AID463204 (Broad Institute, 2010)
The source made the active and inactive calls.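 How the source made its calls: active means AC50 no more than ten times the top concentration tested, that is within one log above it; inconclusive means flat curve fit with activity between 30% and 70%, or invalid poor fit; inactive means AC50 beyond ten times the top tested dose.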

system: S. cerevisiae Mot1-301 ts growth rescue, BacTiter-Glo ATP luminescence; assay: growth rescue of Mot1-301 ts yeast, confirmation, SUMOylation pathway inhibitor project, whole organism, S. cerevisiae, Mot1-301 ts mutant, luminescence, dose retest (AID 463204);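 further: growth at restrictive 38.5 degrees C of Mot1-301 OY566 strain; actives raise luminescence by restoring growth of the ts mutant at high temperature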

Question: Which AC50 does the source give for `COc1cc(NC(=O)C2=CC(c3ccco3)=NS(=O)(=O)N2C)cc(OC)c1OC` here?
Answer: Its AC50 is > 42 µM (inactive).

Question: For `CCOP(=O)(OCC)c1cc(CC)ccc1O`, which AC50 is on record?
Answer: The AC50 was > 42 µM (inactive).

Question: Which AC50 does the source give for `O=C(CSc1nccc(=O)[nH]1)c1cc2ccccc2o1` here?
Answer: The AC50 was > 42 µM (inactive).

Question: How did the AC50 turn out when `CCN1C(=NCc2cccc(Cl)c2)N[C@@H](c2cccc(F)c2)C(C(=O)OC)=C1C` was run?
Answer: The AC50 was > 42 µM (inactive).

Question: How did the AC50 turn out when `Cc1n[nH]c(=O)nc1NCc1ccc(Cl)cc1` was run?
Answer: The AC50 was > 42 µM (inactive).

Question: For `CC1(C)CC(=O)C2=C(C1)Oc1ncn(CCO)c(=N)c1C2c1ccccc1` (stereo not drawn), which AC50 is on record?
Answer: Its AC50 is > 42 µM (inactive).

Question: Which AC50 does the source give for `NN1C(=O)NC(c2ccccc2)(c2ccccc2)C1=O` here?
Answer: Its AC50 is > 42 µM (inactive).

Question: With `Cc1ccc(C)c(NC(=S)NC(=O)c2cncc(Br)c2)c1` as the compound, how does the AC50 read?
Answer: The AC50 was > 42 µM (inactive).

Question: `Cc1ccc(SC[C@H](C)CN2CC[C@H](C)CCC2=O)cc1` was tested. Which AC50 did it give?
Answer: Its AC50 is > 42 µM (inactive).

Question: For `CN(C)CCNC(=O)c1c(O)c2c([nH]c1=O)CCCC2`, which AC50 is on record?
Answer: Its AC50 is > 42 µM (inactive).

Question: Which AC50 does the source give for `CCOC(=O)c1ccccc1NC(=O)C1CC(=O)N(C2CCCCC2)C1` (stereo not drawn) here?
Answer: Its AC50 is > 42 µM (inactive).

Question: `Cc1cc(NC(=O)c2ccc3c(c2)C(=O)N(C(C)(C)C)C3=O)no1` was tested. Which AC50 did it give?
Answer: Its AC50 is > 42 µM (inactive).

Question: For `CN1C(=O)C(O)(CC(=O)c2ccccc2O)c2cc(Br)ccc21` (stereo not drawn), which AC50 is on record?
Answer: The AC50 was > 42 µM (inactive).

Question: For `COC(=O)c1ccc(SCC(=O)N2CCC(C)CC2)c([N+](=O)[O-])c1`, which AC50 is on record?
Answer: The AC50 was > 42 µM (inactive).

Question: For `CSc1ccccc1-n1nnnc1SCC(=O)Nc1ccccc1C`, which AC50 is on record?
Answer: The AC50 was > 42 µM (inactive).

Question: `O=c1cc(-c2ccccc2)nc(N2CCN(Cc3ccccc3)CC2)[nH]1` was tested. Which AC50 did it give?
Answer: The AC50 was > 42 µM (inactive).

Question: `Cc1ccc(N/C=C(\C#N)c2ccc(OCCCF)cc2)cc1` was tested. Which AC50 did it give?
Answer: Its AC50 is > 42 µM (inactive).

Question: With `COc1cc2c(=O)n(CCC(=O)NCC3CCCO3)c(=O)n(CC(=O)Nc3ccccc3C)c2cc1OC` (stereo not drawn) as the compound, how does the AC50 read?
Answer: The AC50 was > 42 µM (inactive).

Question: For `Cc1ccc(S(=O)(=O)NCC(=O)OCC(=O)c2ccc(Br)s2)cc1`, which AC50 is on record?
Answer: The AC50 was > 42 µM (inactive).

Question: Which AC50 does the source give for `CCOC(=O)N1CCN(C(=O)c2ccc(OC)c(OC)c2)CC1` here?
Answer: The AC50 was > 42 µM (inactive).

Question: `O=C(N/N=C/c1cccs1)c1cncc(Br)c1` was tested. Which AC50 did it give?
Answer: The AC50 was > 42 µM (inactive).

Question: Which AC50 does the source give for `O=c1c2ccccc2ncn1Cc1ccc2c(c1)OCO2` here?
Answer: The AC50 was > 42 µM (inactive).

Question: For `COc1ccc2c(c1)[C@@]13CCC=C[C@H]1[C@@H](C2)NCC3`, which AC50 is on record?
Answer: The AC50 was > 42 µM (inactive).

Question: With `CCc1cc2c(=O)c(-c3ccc(F)cc3)c(C(F)(F)F)oc2cc1OCC(=O)O` as the compound, how does the AC50 read?
Answer: The AC50 was > 42 µM (inactive).

Question: `CC1CCN(CCCCOc2cccc(Br)c2)CC1` was tested. Which AC50 did it give?
Answer: The AC50 was > 42 µM (inactive).

Question: How did the AC50 turn out when `COc1ccccc1NC(=O)Nc1ccc(Cl)c(S(=O)(=O)Nc2ccccc2OC)c1` was run?
Answer: Its AC50 is > 42 µM (inactive).

Question: With `CC(=Nc1ccccc1)C1=C(O)CC(C)(C)CC1=O` as the compound, how does the AC50 read?
Answer: Its AC50 is > 42 µM (inactive).

Question: Which AC50 does the source give for `CC1CCN(CCCOc2ccc(OCc3ccccc3)cc2)CC1` here?
Answer: Its AC50 is > 42 µM (inactive).

Question: Which AC50 does the source give for `O=C(O)c1c(C(=O)O)c(-c2ccc(F)cc2)n2c1CCC2` here?
Answer: The AC50 was > 42 µM (inactive).

Question: `Cc1cc(C)cc(C(=O)NC(CC(N)=O)c2ccc(N3CCC(N4CCCCC4)CC3)c([N+](=O)[O-])c2)c1` (stereo not drawn) was tested. Which AC50 did it give?
Answer: The AC50 was > 42 µM (inactive).

Question: For `Cc1nnc(SCC(=O)NCc2ccccc2Cl)[nH]c1=O`, which AC50 is on record?
Answer: The AC50 was > 42 µM (inactive).

Question: `O=C1CC(c2cccc(Br)c2)C2=C(COC2=O)N1` (stereo not drawn) was tested. Which AC50 did it give?
Answer: The AC50 was > 42 µM (inactive).

Question: For `O=c1nc2ccc(Cl)cn2c2ccc(S(=O)(=O)N3CCOCC3)cc12`, which AC50 is on record?
Answer: Its AC50 is > 42 µM (inactive).

Question: `COCCNC(=O)C(=O)N/N=C(\C)CC(=O)Nc1cccc(C(F)(F)F)c1` was tested. Which AC50 did it give?
Answer: Its AC50 is > 42 µM (inactive).

Question: Which AC50 does the source give for `COc1ccc(N2CCN(CCCNC(=O)C(=O)c3c(C)[nH]c4ccccc34)CC2)cc1` here?
Answer: Its AC50 is > 21 µM (inactive).

Question: How did the AC50 turn out when `Cc1ccc(NC(=O)CC2CS(=O)(=O)CC2CC(=O)Nc2ccc(C)c(C)c2)cc1C` (stereo not drawn) was run?
Answer: The AC50 was > 42 µM (inactive).

Question: `CC12CCC(=O)N1C(C(=O)Nc1ccccc1F)CS2` (stereo not drawn) was tested. Which AC50 did it give?
Answer: The AC50 was > 42 µM (inactive).

Question: Which AC50 does the source give for `CCCOC(=O)c1c(NC(=O)/C=C/c2cnn(C)c2C)sc(C(=O)OC)c1C` here?
Answer: The AC50 was > 42 µM (inactive).

Question: For `CCOc1ccc(-n2cc(C(=O)NCCOC)c3cc(OC)c(OC)cc3c2=O)cc1`, which AC50 is on record?
Answer: The AC50 was > 42 µM (inactive).

Question: How did the AC50 turn out when `COc1ccccc1C(=O)NC(=O)COC(=O)Cc1ccccc1[N+](=O)[O-]` was run?
Answer: The AC50 was > 42 µM (inactive).

Question: How did the AC50 turn out when `c1ccc(-c2csc(NC3CCCCC3)n2)cc1` was run?
Answer: The AC50 was > 42 µM (inactive).

Question: Which AC50 does the source give for `CCc1ccc(-n2c(Cc3ccccc3)n[nH]c2=S)cc1` here?
Answer: Its AC50 is > 42 µM (inactive).

Question: `CCOC(=O)c1c(CN2CCCCC2)n(C)c2cc(Br)c(O)c(CN(C)C)c12` was tested. Which AC50 did it give?
Answer: The AC50 was > 42 µM (inactive).

Question: How did the AC50 turn out when `COc1ccc(/C=N/NC(=O)c2c(C)nc3ccccn23)cc1[N+](=O)[O-]` was run?
Answer: The AC50 was > 42 µM (inactive).

Question: `O=C(Nc1ccncc1Cl)c1ccncc1` was tested. Which AC50 did it give?
Answer: The AC50 was > 42 µM (inactive).

Question: Which AC50 does the source give for `COc1ccc(OC)c(CCNC(=O)c2ccc3c(c2)N(Cc2ccc(F)cc2)CCS3)c1` here?
Answer: The AC50 was > 42 µM (inactive).

Question: `CCC1=Nc2cc(C(=O)NCc3ccco3)ccc2Sc2ccccc21` was tested. Which AC50 did it give?
Answer: Its AC50 is > 42 µM (inactive).

Question: `CCC(C)NCCOc1ccccc1C` (stereo not drawn) was tested. Which AC50 did it give?
Answer: The AC50 was > 42 µM (inactive).

Question: `O=C(COc1ccc(Cl)cc1)NCCCNC(=O)c1ccccn1` was tested. Which AC50 did it give?
Answer: The AC50 was > 42 µM (inactive).

Question: For `COc1ccc(Nc2oc(-c3cccs3)nc2C#N)cc1`, which AC50 is on record?
Answer: Its AC50 is > 42 µM (inactive).

Question: How did the AC50 turn out when `COc1ccccc1-c1sc2ccccc2c1-c1ccc2c(c1)OCO2` was run?
Answer: The AC50 was > 42 µM (inactive).

Question: For `COc1cc(CNCc2ccc3c(c2)OCO3)c([N+](=O)[O-])cc1OC`, which AC50 is on record?
Answer: Its AC50 is > 42 µM (inactive).

Question: How did the AC50 turn out when `COc1ccc(C(=O)N(CCc2ccccc2)Cc2ccccc2)c(OC)n1` was run?
Answer: The AC50 was > 42 µM (inactive).

Question: Which AC50 does the source give for `CC1=C(C(=O)OCc2ccccc2)C(c2cccc(F)c2)NC(=O)N1` (stereo not drawn) here?
Answer: The AC50 was > 42 µM (inactive).

Question: For `CCCNC(=O)Cn1nc(C)n2c(cc3cc(F)ccc32)c1=O`, which AC50 is on record?
Answer: Its AC50 is > 42 µM (inactive).

Question: With `Cc1ccc(NC(=O)Cn2nc(C)c3ccccc3c2=O)cc1` as the compound, how does the AC50 read?
Answer: Its AC50 is > 42 µM (inactive).

Question: For `O=C(CCS(=O)(=O)c1ccc(Br)s1)NCc1ccccc1`, which AC50 is on record?
Answer: Its AC50 is > 42 µM (inactive).

Question: How did the AC50 turn out when `CC1=C(C#N)S(=O)(=O)C(C#N)C(c2ccccc2)C1` (stereo not drawn) was run?
Answer: Its AC50 is > 42 µM (inactive).

Question: Which AC50 does the source give for `COc1ccc(CCC(=O)Nc2ccc3c(c2)OCO3)cc1` here?
Answer: The AC50 was > 42 µM (inactive).

Question: Which AC50 does the source give for `CCOC(=O)c1nc(Nc2ccccc2CC)c2ccccc2n1` here?
Answer: Its AC50 is > 42 µM (inactive).

Question: With `CC(C)c1cccc(OCCCCN(C)C)c1` as the compound, how does the AC50 read?
Answer: Its AC50 is > 42 µM (inactive).

Question: Which AC50 does the source give for `CC(C)(CNC(=O)c1cccs1)CNC(=O)c1cccs1` here?
Answer: The AC50 was > 42 µM (inactive).

Question: How did the AC50 turn out when `O=C(Nc1ccccc1N1CCOCC1)c1cc(Br)c(Br)s1` was run?
Answer: The AC50 was > 42 µM (inactive).

Question: `CC1CN(S(=O)(=O)c2cccc(C(=O)N=c3sccn3C)c2)CC(C)O1` (stereo not drawn) was tested. Which AC50 did it give?
Answer: The AC50 was > 42 µM (inactive).

Question: How did the AC50 turn out when `Cn1cc(Br)c(C(=O)Nc2nccs2)n1` was run?
Answer: Its AC50 is > 42 µM (inactive).

Question: For `COC(=O)Oc1ccc(/C=N/NS(=O)(=O)c2ccccc2)cc1OC`, which AC50 is on record?
Answer: Its AC50 is > 42 µM (inactive).

Question: For `O=C(CSc1nc(=O)n2ccccc2n1)N1CCN(c2ccccc2)CC1`, which AC50 is on record?
Answer: Its AC50 is > 42 µM (inactive).

Question: For `O=C(OCc1ccccc1)c1cccc(-c2nnn(Cc3ccccc3)n2)c1`, which AC50 is on record?
Answer: Its AC50 is > 42 µM (inactive).

Question: Which AC50 does the source give for `CCOc1ccc(C)cc1S(=O)(=O)n1nc(C)cc1C` here?
Answer: Its AC50 is > 42 µM (inactive).

Question: `CN(C/C=C/c1ccccc1[N+](=O)[O-])Cc1ccccc1` was tested. Which AC50 did it give?
Answer: The AC50 was > 42 µM (inactive).

Question: `CCN(CC)c1nc2c(c(=O)[nH]c(=O)n2C)n1CCOc1ccccc1` was tested. Which AC50 did it give?
Answer: Its AC50 is > 42 µM (inactive).

Question: For `C=CCNC(=O)NC(=O)COC(=O)CCCSc1nc2ccccc2[nH]1`, which AC50 is on record?
Answer: The AC50 was > 42 µM (inactive).

Question: For `COc1ccc(OC(=O)c2ccc(Cl)cc2)c(C(C)=O)c1`, which AC50 is on record?
Answer: Its AC50 is > 42 µM (inactive).
